# Experimental data reported in patent publication US4145554A, “3-Nitropyrazole derivatives” (Eli Lilly and Company, priority 1977, dated 1979).
# Read-outs that look alike come from different tables or passages of the source.
# Experiments:
# [1] = tested on: naturally-occurring pneumoenteritis complex infection (pasteurella species, E. coli and salmonellae); assay: Pneumoenteritis complex disease in calves, first test; assay type: in vivo; settings: for Mortality / Avg. Wt. Gain: milk replacer, 56 days; for Avg. Wt. Gain: survivors
# Procedure: Our compound, 1-(2-hydroxyethyl)-3-nitro-4-pyrazolecarboxamide, was evaluated in the control of a naturally-occurring pneumoenteritis complex infection of calves. […] A group of 24 calves was allocated randomly into three treatment groups. The average weights of the treatment groups were nearly identical at the start of the experiment. The calves were housed in quarters which were kept as clean as typical calf quarters, but in which calves suffering from pneumoenteritis complex had previously been housed. […] One group was a control group, and was fed on a typical milk replacer diet. The other two groups received 200 mg. and 400 mg. per day respectively of the 3-nitro-pyrazole compound, mixed in their milk replacer diets.
# The calves were carefully observed daily to detect signs of illness as quickly as such signs appeared. The calves were weighed at weekly intervals. Various organs were removed from the calves which died during the experiment, and cultures were prepared from the organs to identify microorganisms. At the end of the 56-day experiment, cultures were prepared from nasal and rectal swabs of the surviving calves, and microorganisms in the cultures were identified.
# [2] = tested on: Streptococcus sp. (group E); assay: in vitro tube dilution test (MIC); assay type: cell-based
# Erwinia amylovora = assay: Fire blight of pear, in vivo greenhouse test
# Procedure: An in vivo test was conducted against the fire blight organism, Erwinia amylovora. Plants infected with E. amylovora were sprayed with aqueous dispersions containing 100 ppm. and 500 ppm. of the test compounds. […] The compounds are identified below by their compound numbers in the above listing.
# [3] = Growth promotion in swine; assay type: in vivo; settings: 300 gm./ton; 28 days
# Text: The same 3-nitropyrazole tested above was used in a growth promotion test in swine. The pigs weighed 25-30 lbs. when the test began, and were housed and fed according to good commercial practice for 28 days. The pigs in the treated group received feed containing 300 gm. per ton of the 3-nitropyrazole compound.
# Mycoplasma hyopneumoniae = assay: in vitro tube dilution test (MIC); assay type: cell-based; settings: Mesomycoplasma hyopneumoniae
# Pseudomonas aeruginosa = assay: agar dilution technique (MIC); assay type: cell-based
# [4] = tested on: Arizona hinshaw (paracolon); assay: in vitro tube dilution test (MIC); assay type: cell-based
# group E streptococci = assay: Lymphadenitis in swine; assay type: in vivo; settings: 200 gm. per ton of feed; 7 weeks; 12 treated swine
# Procedure: The same 3-nitropyrazole tested in the example immediately above was also tested to determine its ability to prevent lymphadenitis, or jowl abscess, infections in swine. One group of 12 young swine was treated with the 3-nitropyrazole compound as a feed additive at the rate of 200 gm. per ton of feed, and another group of 12 swine was held as infected controls. Administration of the 3-nitropyrazole began shortly before the administration of the challenge, and continued throughout the 7-week test. All of the swine were challenged with a culture of group E streptococci isolated from jowl abscesses of an infected pig. The challenge organisms were administered as a dispersion in the swine's drinking water. After 7 weeks, all of the swine were slaughtered, and their cervical areas were examined for the presence of the abscesses caused by lymphadenitis infections. […] Abscesses were found in 9 of the 12 infected control animals.
# secretion in sow's milk = assay: secretion in sow's milk; set-up: species or system swine; settings: in vivo
# Leptospira (5 serotypes) = assay: in vitro tube dilution test (MIC); assay type: cell-based
# H. meleagridis = assay: Blackhead in poultry, turkeys; assay type: in vivo
# Procedure: One- to three-week-old chicks and turkey poults were obtained from homogeneous source flocks and allocated into treatment groups. Some groups were held as infected, untreated controls, and other groups were treated with 3-nitropyrazoles by administering the compounds in the birds' feed. Various concentrations of the pyrazoles were administered to determine the least concentration which protected the birds. A few days after the administration of medicated feed began, all of the birds were challenged by rectally administering a suspension of at least 5,000 H. meleagridis protozoa per chick. The challenge organisms had been originally obtained from infected chickens, and were grown in vitro to provide a supply of organisms for testing.
# The birds were held for about seven days after the challenge was administered, during which time the administration of pyrazole-medicated feed was continued. Then all of the chicks, including the untreated, infected controls, were sacrificed and necropsied. The cecum and the liver of each bird were examined for characteristic H. meleagridis lesions.
# For each compound, the lowest feed concentration which gave an active response is indicated. While feed consumption data were not taken during the tests, the birds ate at such a rate that a feed concentration of 0.02 percent is equivalent to a treatment rate of about 10 mg./kg./day.
# Escherichia coli = assay: agar dilution technique (MIC); assay type: cell-based
# [5] = tested on: Pasteurella multocida and P. hemolytica; assay: Pasteurella pneumonia in calves; assay type: in vivo
# [6] = tested on: Bordetella bronchiseptica; assay: in vitro tube dilution test (MIC); assay type: cell-based
# Pasteurella multocida = assay: in vitro tube dilution test (MIC); assay type: cell-based; settings: tube dilution, read-out: MIC
# Summary of the method: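 Standard tube dilution test; MIC is the lowest compound concentration controlling growth, given in μg/mL.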
# Salmonella sp. = assay: in vitro tube dilution test (MIC); assay type: cell-based
# Text: Our compound, 1-(2-hydroxyethyl)-3-nitro-4-pyrazolecarboxamide, has been extensively tested in vitro to determine the range of microorganisms against which it is active. The table of data below reports the minimum inhibitory concentration (MIC) at which the compound is effective in controlling a variety of microorganisms in a standard tube dilution test system. The MIC is reported as micrograms of compound per milliliter.
# P. multocida = assay: Pasteurellosis in turkeys; assay type: in vivo; settings: 100 gm./ton
# [7] = 200 mg./day/calf (3-5 mg./kg./day)
# [8] = 400 mg./day/calf (6-10 mg./kg./day)
# [9] = 8 days after challenge, 25 mg. per kg. intramuscular
smiles,measurement,setting,value
"NC(=O)c1cn(CCO)nc1[N+](=O)[O-] [Compound 32, 1-(2-hydroxyethyl)-3-nitro-4-pyrazolecarboxamide]",Mortality,[1]; [7],1/8
same,Avg. Wt. Gain,[1]; [7],36.6 lbs.
same,Mortality,[1]; [8],1/8
same,Avg. Wt. Gain,[1]; [8],55.3 lbs.
same,surviving treated calves with P. multocida or hemolytica in nasal swabs,"[1]; 200 and 400 mg. per day groups, end of 56 days",11 of the 14 surviving treated calves
same,surviving calves with E. coli in rectal swabs,"[1]; of 14 surviving treated calves, end of 56 days",12 of the surviving calves
same,MIC,[2],1.56 µg/mL
same,Percent Control of fire blight,Erwinia amylovora; 100 ppm.,50%
same,Percent Control of fire blight,Erwinia amylovora; 500 ppm.,92%
same,Average Daily Feed Consumption,[3],2.00 lbs.
same,Average Daily Gain,[3],1.01 lbs.
same,Feed/Gain,[3],1.96
same,MIC,Mycoplasma hyopneumoniae,50 µg/mL
same,MIC,Pseudomonas aeruginosa,128 µg/mL
same,MIC,[4],6.25 µg/mL
same,abscesses in cervical areas,group E streptococci,No abscesses were found in any of the treated swine
same,secretion in sow's milk,secretion in sow's milk,secreted in sow's milk
same,MIC,Leptospira (5 serotypes),> 100 µg/mL
same,Active Level (lowest feed concentration which gave an active response),H. meleagridis,.02%
same,MIC,Escherichia coli,8 µg/mL
same,pasteurellae identified in lungs,[5]; [9],No pasteurellae were identified in the lungs of any of the three animals
same,physical examination of lungs,[5]; [9],minor consolidation or emphysema in areas of the lungs
same,extent of pasteurella infection,"[5]; indicated by temperatures, 25 mg. per kg. intramuscular",only a very mild pasteurella infection
same,Average Temperature,"[5]; post-challenge, 25 mg. per kg. intramuscular daily for five days",102.7 ° F.
same,MIC,[6],25 µg/mL
same,MIC,Pasteurella multocida; Cattle Isolates,< 1.56 µg/mL
same,MIC,Pasteurella multocida; Swine Isolate (first line),> 50 µg/mL
same,MIC,Pasteurella multocida; Swine Isolate (second line),6.25 µg/mL
same,MIC,Pasteurella multocida; Turkey Isolates,> 50 µg/mL
same,MIC,Salmonella sp.,3.12 µg/mL
same,Mortality Rate,P. multocida,20%
same,Culture Isolation,P. multocida; about 5 mg./kg./day,1/5
same,Mortality Rate,P. multocida; about 5 mg./kg./day,1/5
